Reference: US6777426B2, “Imidazole and imidazoline derivatives and uses thereof” (Synaptic Pharmaceutical Corporation, priority 1997, dated 2004)
Read-outs that look alike come from different tables or passages of the source.

Key:
[1] = target: T1, human α2a adrenergic receptor (Homo sapiens, UniProt P08913); test: Equilibrium competition binding, [3H]rauwolscine, cloned human α2a
T1 construct: expressed in transfected cells; host or cells: LM(tk−) cells (L-α2A, ATCC CRL-11180), vector pCEXV-3
T1 sequence (P08913 1-465): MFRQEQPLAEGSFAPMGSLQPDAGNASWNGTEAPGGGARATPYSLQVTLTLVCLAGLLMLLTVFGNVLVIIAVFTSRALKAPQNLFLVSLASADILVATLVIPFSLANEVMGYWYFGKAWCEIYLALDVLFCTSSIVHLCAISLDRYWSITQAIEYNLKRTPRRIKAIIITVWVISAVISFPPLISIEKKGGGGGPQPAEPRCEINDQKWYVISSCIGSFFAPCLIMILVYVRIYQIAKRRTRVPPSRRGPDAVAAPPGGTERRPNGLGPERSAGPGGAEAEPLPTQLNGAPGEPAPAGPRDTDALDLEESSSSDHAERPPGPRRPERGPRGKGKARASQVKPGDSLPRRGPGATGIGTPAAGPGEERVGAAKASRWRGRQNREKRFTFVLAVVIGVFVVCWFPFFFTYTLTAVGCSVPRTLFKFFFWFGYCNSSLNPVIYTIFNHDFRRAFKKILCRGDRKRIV
Experimental: (§1) Binding and functional assays were performed using stably transfected cells expressing human α adrenergic receptors. Equilibrium competition binding assays were performed with membrane preparations from cultured LM(tk−) cells stably transfected with the cloned human adrenoceptor subtypes except for a21, which was expressed In Y-1 cells, using [^3H]prazosin for α1 receptors and [^3H]rauwolscine for […].
(§2) These cell lines were prepared by transfecting cloned cDNA or cloned genomic DNA or constructs containing both genomic DNA and cDNA encoding the human a adrenergic receptors as described below.
The insert housing this coding region was a 2.5 kb Kpnl/HindIII human placenta genomic fragment which was end-blunted by either T4 polymerase or Klenow fragment of DNA polymerase. Stable cell lines were obtained by to-transfection with the plasmid pGCcos3neo (plasmid containing the α2a receptor gene) and the plasmid pGCcos3neo (plasmid containing the aminoglycoside transferase gene) into LM(tk−), CHO, and NIH3T3 cells, using calcium phosphate technique. The cells were grown in a controlled environment (37° C., 5% CO2) as monolayers in Dulbecco's modified Eagle's Medium (GIBCO, Grand Island, N.Y.) containing 25 mM glucose and supplemented with 10% bovine calf serum, 100 units/mL penicillin g, and […] streptomycin sulfate.
(§3) The stable cell lines described above were scraped from culture flasks into 5 mL of 5 mM Tris-HCl, […], pH 7.5, and lysed by sonication. The cell lysates were centrifuged at 1,000 rpm for 5 min. at 4° C., and the supernatant was centrifuged at 30,000×g for 20 min. at 4° C. The pellet was suspended in 50 mM Tris-HCl, 1 mM MgCl2, and 0.1% ascorbic acid at pH 7.5. Binding of the α2 antagonist [^3H]rauwolscine (0.5 nM) or the α1 antagonist [^3H]prazosin (0.5 nM) to membrane preparations of LM(tk−) cells was done in a final volume of 0.25 mL and incubated at 37° C. for 20 min. Nonspecific binding was determined in the presence of […]. The reaction was stopped by filtration through GF/B filters using a cell harvester.

[2] = target: T2, human α2b adrenergic receptor (Homo sapiens, UniProt P18089); test: Equilibrium competition binding, [3H]rauwolscine, cloned human α2b
T2 construct: expressed in transfected cells; host or cells: stably transfected cells, vector pcEXV-3; deposited line L-NGC-α2B (ATCC CRL-10275)
T2 sequence (P18089 1-450): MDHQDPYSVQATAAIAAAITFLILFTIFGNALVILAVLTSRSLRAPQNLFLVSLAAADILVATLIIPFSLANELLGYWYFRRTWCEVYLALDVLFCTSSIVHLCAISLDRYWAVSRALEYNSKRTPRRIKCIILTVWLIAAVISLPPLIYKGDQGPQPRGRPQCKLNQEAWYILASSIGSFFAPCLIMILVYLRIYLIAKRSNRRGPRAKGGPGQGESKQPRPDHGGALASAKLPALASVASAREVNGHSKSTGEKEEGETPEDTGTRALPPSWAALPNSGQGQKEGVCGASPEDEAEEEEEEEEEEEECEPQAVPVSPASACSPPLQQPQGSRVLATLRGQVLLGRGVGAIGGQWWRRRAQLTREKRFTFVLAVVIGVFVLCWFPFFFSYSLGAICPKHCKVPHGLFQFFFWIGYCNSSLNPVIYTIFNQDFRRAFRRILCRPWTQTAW
Experimental: as §1, §2
Stable cell lines were selected as described above.
as §3

[3] = target: T3, human α2c adrenergic receptor (Homo sapiens, UniProt P18825); test: Equilibrium competition binding, [3H]rauwolscine, cloned human α2c
T3 construct: The entire coding region of α2c (1383 bp), including 2 bp of 5′ UT and 400 bp of 3′ UT; expressed in transfected cells; host or cells: LM(tk−) cells (L-α2c, ATCC CRL-11181), vector pCEXV-3
T3 sequence (P18825 1-462): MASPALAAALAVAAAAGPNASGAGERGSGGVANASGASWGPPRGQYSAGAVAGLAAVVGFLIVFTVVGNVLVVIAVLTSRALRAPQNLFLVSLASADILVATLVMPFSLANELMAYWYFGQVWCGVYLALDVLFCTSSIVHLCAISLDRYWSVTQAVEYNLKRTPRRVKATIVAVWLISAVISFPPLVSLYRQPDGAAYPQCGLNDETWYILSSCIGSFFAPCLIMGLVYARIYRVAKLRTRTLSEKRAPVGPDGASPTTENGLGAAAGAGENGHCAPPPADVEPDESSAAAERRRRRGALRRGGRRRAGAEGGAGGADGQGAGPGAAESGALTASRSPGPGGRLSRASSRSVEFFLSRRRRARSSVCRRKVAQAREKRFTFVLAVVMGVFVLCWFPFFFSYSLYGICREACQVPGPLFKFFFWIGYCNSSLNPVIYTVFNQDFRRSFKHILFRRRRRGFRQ
Experimental: as §1, §2
The insert housing this coding region was a 1.8 kb Ncol/EcoR1 human spleen genomic fragment which was end-blunted by either T4 polymerase or Klenow fragment of DNA polymerase. Stable cell lines were selected as described above.
as §3

[4] = target: T1, human α2a adrenergic receptor; test: α2 agonist activity: inhibition of forskolin-stimulated cAMP synthesis, α2a cells; type: cell-based; conditions: for α2a IA (Intrinsic Activity): inhibition of forskolin-stimulated cAMP, cloned human α2a
Experimental: as §1, §2
(§4) The agonist activity (expressed as pEC50) was measured as a function of the ability to inhibit the forskolin-stimulated synthesis of cyclic adenosine monophosphate (cAMP). The stably transfected cells were incubated in Ham's F10 with 5 mM theophylline, 10 mM HEPES, 17 mM pargyline, and/or appropriate concentrations of forskolin for 20 min. at 37° C. in 5% CO2. The tested compounds were then added to a final concentration of 0.001 nM to 1 mM and incubated for an additional 15 min. at 37° C. in 5% CO2. The medium was aspirated and the reaction was stopped by the addition of 100 mM HCl. […] The plates were stored at 4° C. for 15 min. and assayed to determine the linear concentration of cAMP. The appropriate dilution was interpolated from the standard curve of cold cAMP. The assessment of cAMP formation was determined by radioimmunoassay (cAMP radioimmunoassay kit; Advanced magnetics, Cambridge, Mass.). Radioactivity was quantified using a Packard COBRA Auto Gamma counter equipped with data reduction software.

[5] = target: T2, human α2b adrenergic receptor; test: α2 agonist activity: inhibition of forskolin-stimulated cAMP synthesis, α2b cells; type: cell-based
Experimental: as §1, §2, §4

[6] = target: T3, human α2c adrenergic receptor; test: α2 agonist activity: inhibition of forskolin-stimulated cAMP synthesis, α2c cells; type: cell-based
Experimental: as §1, §2, §4

[7] = inhibition of forskolin-stimulated cAMP, cloned human α2b
[8] = inhibition of forskolin-stimulated cAMP, cloned human α2c

SMILES | Ki ([1]; cloned human α2a, membrane preparations, [3H]rauwolscine, read-out: α2a pKi (converted)) | Ki ([2]; cloned human α2b, membrane preparations, [3H]rauwolscine, read-out: α2b pKi (converted)) | Ki ([3]; cloned human α2c, membrane preparations, [3H]rauwolscine, read-out: α2c pKi (converted)) | EC50 [4] | α2a IA (Intrinsic Activity) [4] | α2b IA (Intrinsic Activity) [5, 7] | EC50 ([5]; inhibition of forskolin-stimulated cAMP, cloned human α2b, read-out: α2b pEC50 (converted)) | α2c IA (Intrinsic Activity) [6, 8] | EC50 ([6]; inhibition of forskolin-stimulated cAMP, cloned human α2c, read-out: α2c pEC50 (converted)) | melting point | Ki [1] | Ki [2] | Ki [3] | EC50 [5] | EC50 [6]
c1cc2c(cc1NC1=NCCN1)CCC2 [Example 1, 2-(5-Indanylamino)-2-imidazoline] | 1.15 nM | 2.88 nM | 13.8 nM | 14.8 nM | (0.48) | (0.53) | 36.3 nM | (1.00) | 11.5 nM | 41 to 42 °C | – | – | – | – | –
c1nc2c(cc1NC1=NCCN1)CCC2 [Example 21, 2-(2,3-Cyclopentenopyrid-5-yl)amino-2-imidazoline] | – | – | – | 389 nM | (0.58) | (0.55) | – | (1.00) | – | – | 50.1 nM | 166 nM | 457 nM | 1950 nM | 16.2 nM
